Where two headings read alike, the source gives them in different places.
Columns and labels:
C2C12 myotubes = conditions: for Viability (composite Z-score): normalized score vs mock-treated (DMSO) wells
reactive oxygen species = type: cell-based, mouse; conditions: for ROS (composite Z-score): normalized score vs mock-treated (DMSO) wells
OXPHOS gene expression = type: cell-based, mouse; conditions: for GE-HTS (composite Z-score): normalized score vs mock-treated (DMSO) wells
[1] = system: mitochondrial membrane potential; type: cell-based, mouse; conditions: for ΔΨm (composite Z-score): normalized score vs mock-treated (DMSO) wells
cytochrome c = type: cell-based, mouse; conditions: for cyt c (composite Z-score): normalized score vs mock-treated (DMSO) wells
[2] = system: cellular dehydrogenase activity; conditions: for MTT (composite Z-score): normalized score vs mock-treated (DMSO) wells
nuOXPHOS transcripts = type: cell-based, mouse; conditions: for nucOX (composite Z-score): normalized score vs mock-treated (DMSO) wells
mtOXPHOS transcripts = type: cell-based, mouse; conditions: for mitoOX (composite Z-score): normalized score vs mock-treated (DMSO) wells
[3] = normalized composite Z-score vs mock-treated (DMSO) wells, Conc 20 μM
[4] = composite Z-score vs mock-treated (DMSO) wells, Conc 20 μM
[5] = composite Z-score vs DMSO, Conc 20 μM
[6] = 13.16 μM, composite Z-score vs DMSO
[7] = 20 μM, composite Z-score vs DMSO
[8] = composite Z-score vs DMSO wells, Conc 20 μM
[9] = 13.14 μM, composite Z-score vs DMSO
[10] = composite Z-score vs mock-treated (DMSO) wells, concentration of each compound in μM

cytochrome c, sequence (P62897 whole entry): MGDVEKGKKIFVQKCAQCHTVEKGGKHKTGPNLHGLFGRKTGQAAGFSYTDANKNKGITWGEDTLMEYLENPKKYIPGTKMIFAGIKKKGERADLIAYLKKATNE

Compound: CC1(C)C2CC(=O)[C@]3(C)C(CC[C@@]4(C)[C@H](c5ccoc5)OC(=O)[C@H]5O[C@]543)[C@@]2(C)C(=O)C[C@H]1O (stereo partly shown)
- Viability (C2C12 myotubes; [3]): −0.023
- ROS (reactive oxygen species; [3]): 0.122
- GE-HTS (OXPHOS gene expression; [3]): −0.911
- ΔΨm [1, 3]: −0.335
- cyt c (cytochrome c; [3]): 0.113
- MTT [2, 3]: −1.103
- nucOX (nuOXPHOS transcripts; [3]): −0.866
- mitoOX (mtOXPHOS transcripts; [3]): −0.875

Compound: CCC(C)C(=O)OC1[C@@H]2CC3=C4CC(=O)O[C@@H](c5ccoc5)[C@]4(C)CCC3[C@@](C)(C2=O)[C@@H](CC(=O)OC)C1(C)C (stereo partly shown) [khayasin]
- Viability (C2C12 myotubes; [4]): −0.077
- ROS (reactive oxygen species; [4]): 0.528
- GE-HTS (OXPHOS gene expression; [4]): 0.671
- ΔΨm [1, 4]: 0.007
- cyt c (cytochrome c; [4]): −0.281
- MTT [2, 4]: −0.812
- nucOX (nuOXPHOS transcripts; [4]): 0.798
- mitoOX (mtOXPHOS transcripts; [4]): 0.326

Compound: N[C@H]1C(O)O[C@H](CO)[C@H](O)[C@@H]1O[C@@H]1O[C@H](C(=O)O)[C@@H](O)[C@H](O)[C@H]1O (stereo partly shown) [chondrosine]
- Viability (C2C12 myotubes; [5]): −0.800
- ROS (reactive oxygen species; [5]): 0.741
- GE-HTS (OXPHOS gene expression; [5]): −0.743
- ΔΨm [1, 5]: −1.001
- cyt c (cytochrome c; [5]): 0.040
- MTT [2, 5]: −1.759
- nucOX (nuOXPHOS transcripts; [5]): −0.782
- mitoOX (mtOXPHOS transcripts; [5]): −0.476

Compound: CC(COc1ccccc1)N(CCCl)Cc1ccccc1 (stereo not shown) [phenoxybenzamine]
- Viability (C2C12 myotubes; [6]): −0.751
- Viability (C2C12 myotubes; [7]): −0.906
- ROS (reactive oxygen species; [6]): 0.444
- ROS (reactive oxygen species; [7]): 0.256
- GE-HTS (OXPHOS gene expression; [6]): −0.155
- GE-HTS (OXPHOS gene expression; [7]): −1.302
- ΔΨm [1, 6]: −0.422
- ΔΨm [1, 7]: 0.021
- cyt c (cytochrome c; [6]): −0.470
- cyt c (cytochrome c; [7]): −0.188
- MTT [2, 6]: −0.159
- MTT [2, 7]: −1.049
- nucOX (nuOXPHOS transcripts; [6]): −0.306
- nucOX (nuOXPHOS transcripts; [7]): −1.077
- mitoOX (mtOXPHOS transcripts; [6]): 0.167
- mitoOX (mtOXPHOS transcripts; [7]): −1.462

Compound: CC(C)CCC[C@@H](C)[C@H]1CC[C@H]2[C@@H]3C[C@@H](O)[C@@]4(O)C[C@@H](O)CC[C@]4(C)[C@H]3CC[C@]12C [cholestan-3beta,5alpha,6beta-triol]
- Viability (composite Z-score) (C2C12 myotubes; Conc 20 μM): −0.869
- ROS (composite Z-score) (reactive oxygen species; Conc 20 μM): 1.000
- GE-HTS (composite Z-score) (OXPHOS gene expression; Conc 20 μM): 0.382
- ΔΨm (composite Z-score) ([1]; Conc 20 μM): −0.575
- cyt c (composite Z-score) (cytochrome c; Conc 20 μM): 0.815
- MTT (composite Z-score) ([2]; Conc 20 μM): 0.120
- nucOX (composite Z-score) (nuOXPHOS transcripts; Conc 20 μM): 0.523
- mitoOX (composite Z-score) (mtOXPHOS transcripts; Conc 20 μM): 0.074

Compound: CCc1ccc2c(O)c3c(cc2c1C(=O)OC)C(=O)c1c(O)ccc(O)c1C3=O [bisanhydrorutilantinone]
- Viability (C2C12 myotubes; [5]): −0.493
- ROS (reactive oxygen species; [5]): 0.236
- GE-HTS (OXPHOS gene expression; [5]): −0.727
- ΔΨm [1, 5]: −2.223
- cyt c (cytochrome c; [5]): 0.148
- MTT [2, 5]: −1.755
- nucOX (nuOXPHOS transcripts; [5]): −0.268
- mitoOX (mtOXPHOS transcripts; [5]): −1.532

Compound: COC(=O)CC[C@@H](C)[C@H]1CC[C@H]2[C@@H]3[C@H](O)C[C@@H]4C[C@H](O)CC[C@]4(C)[C@H]3C[C@H](O)[C@]12C [cholic acid, methyl ester]
- Viability (C2C12 myotubes; [3]): −0.383
- ROS (reactive oxygen species; [3]): 0.295
- GE-HTS (OXPHOS gene expression; [3]): −0.751
- ΔΨm [1, 3]: 0.065
- cyt c (cytochrome c; [3]): 0.018
- MTT [2, 3]: −1.021
- nucOX (nuOXPHOS transcripts; [3]): −0.852
- mitoOX (mtOXPHOS transcripts; [3]): −0.394

Compound: O=C(CCBr)N1CCN(C(=O)CCBr)CC1 [pipobroman]
- Viability (C2C12 myotubes): −0.792
- ROS (reactive oxygen species): 0.342
- GE-HTS (OXPHOS gene expression): −1.074
- ΔΨm [1]: −0.580
- cyt c (cytochrome c): 0.441
- MTT [2]: −1.907
- nucOX (nuOXPHOS transcripts): −0.918
- mitoOX (mtOXPHOS transcripts): −1.219

Compound: COC1=CC(=O)C(C(=O)c2ccccc2)=CC1=O [2-benzoyl-5-methoxybenzoquinone]
- Viability (C2C12 myotubes; [5]): −0.284
- ROS (reactive oxygen species; [5]): −0.542
- GE-HTS (OXPHOS gene expression; [5]): −0.699
- ΔΨm [1, 5]: −0.229
- cyt c (cytochrome c; [5]): 0.206
- MTT [2, 5]: −1.489
- nucOX (nuOXPHOS transcripts; [5]): −0.511
- mitoOX (mtOXPHOS transcripts; [5]): −0.985

Compound: CC1(C)CC[C@]2(C(=O)O)CC[C@]3(C)C(=CC[C@@H]4[C@@]5(C)CC[C@H](O)[C@@](C)(CO)[C@@H]5CC[C@]43C)[C@@H]2C1 [hederagenin]
- Viability (C2C12 myotubes): 0.310
- ROS (reactive oxygen species): 0.385
- GE-HTS (OXPHOS gene expression): −0.654
- ΔΨm [1]: −0.901
- cyt c (cytochrome c): 0.945
- MTT [2]: −1.259
- nucOX (nuOXPHOS transcripts): −0.630
- mitoOX (mtOXPHOS transcripts): −0.540

Compound: C=C(C)[C@@H]1[C@H]2OC(=O)[C@@H]1[C@]1(O)C[C@H]3O[C@]34C(=O)O[C@H]2[C@]14C [picrotoxinin]
- Viability (C2C12 myotubes; [8]): −1.116
- ROS (reactive oxygen species; [8]): 1.094
- GE-HTS (OXPHOS gene expression; [8]): −0.512
- ΔΨm [1, 8]: −1.064
- cyt c (cytochrome c; [8]): 0.172
- MTT [2, 8]: −1.611
- nucOX (nuOXPHOS transcripts; [8]): −0.408
- mitoOX (mtOXPHOS transcripts; [8]): −0.551

Compound: totarol acetate
- Viability (C2C12 myotubes; [5]): −0.273
- ROS (reactive oxygen species; [5]): 0.452
- GE-HTS (OXPHOS gene expression; [5]): 0.574
- ΔΨm [1, 5]: −0.556
- cyt c (cytochrome c; [5]): 1.207
- MTT [2, 5]: 0.730
- nucOX (nuOXPHOS transcripts; [5]): 0.830
- mitoOX (mtOXPHOS transcripts; [5]): −0.125

Compound: CO/N=C(\C(=O)N[C@@H]1C(=O)N2C(C(=O)O)=C(COC(N)=O)CS[C@H]12)c1ccco1 [cefuroxime]
- Viability (C2C12 myotubes; [5]): −0.846
- ROS (reactive oxygen species; [5]): 0.366
- GE-HTS (OXPHOS gene expression; [5]): 0.816
- ΔΨm [1, 5]: −0.358
- cyt c (cytochrome c; [5]): −0.495
- MTT [2, 5]: −0.536
- nucOX (nuOXPHOS transcripts; [5]): 0.790
- mitoOX (mtOXPHOS transcripts; [5]): 0.699

Compound: O=C(O)CCCc1ccc(N(CCCl)CCCl)cc1 [chlorambucil]
- Viability (C2C12 myotubes; [9]): −0.507
- Viability (C2C12 myotubes; [7]): −0.007
- ROS (reactive oxygen species; [9]): 0.056
- ROS (reactive oxygen species; [7]): 0.165
- GE-HTS (OXPHOS gene expression; [9]): 0.249
- GE-HTS (OXPHOS gene expression; [7]): 0.725
- ΔΨm [1, 9]: 0.199
- ΔΨm [1, 7]: −0.826
- cyt c (cytochrome c; [9]): 0.035
- cyt c (cytochrome c; [7]): −0.955
- MTT [2, 9]: −0.069
- MTT [2, 7]: −1.519
- nucOX (nuOXPHOS transcripts; [9]): 0.147
- nucOX (nuOXPHOS transcripts; [7]): 0.360
- mitoOX (mtOXPHOS transcripts; [9]): 0.398
- mitoOX (mtOXPHOS transcripts; [7]): 1.273

Compound: O=C(CCCCCCCCCCCCC1CCCC1)Nc1ccc(S(=O)(=O)c2ccc(NC(=O)CCCCCCCCCCCCC3CCCC3)cc2)cc1 [chaulmosulfone]
- Viability (composite Z-score) (C2C12 myotubes; Conc 20 μM): −0.010
- ROS (composite Z-score) (reactive oxygen species; Conc 20 μM): 0.935
- GE-HTS (composite Z-score) (OXPHOS gene expression; Conc 20 μM): 0.157
- ΔΨm (composite Z-score) ([1]; Conc 20 μM): −0.993
- cyt c (composite Z-score) (cytochrome c; Conc 20 μM): −0.036
- MTT (composite Z-score) ([2]; Conc 20 μM): −0.289
- nucOX (composite Z-score) (nuOXPHOS transcripts; Conc 20 μM): 0.083
- mitoOX (composite Z-score) (mtOXPHOS transcripts; Conc 20 μM): 0.305

Compound: CC1(C)C(=O)C=C[C@@]2(C)C1CC(=O)[C@@]1(C)C3=CC(=O)O[C@@H](c4ccoc4)[C@]3(C)CCC12 (stereo partly shown) [7-deacetoxy-7-oxodeoxygedunin]
- Viability (C2C12 myotubes; [4]): 0.224
- ROS (reactive oxygen species; [4]): −0.489
- GE-HTS (OXPHOS gene expression; [4]): −1.791
- ΔΨm [1, 4]: 0.757
- cyt c (cytochrome c; [4]): 0.166
- MTT [2, 4]: −1.467
- nucOX (nuOXPHOS transcripts; [4]): −1.586
- mitoOX (mtOXPHOS transcripts; [4]): −1.925

Compound: COc1ccc([C@H]2COc3c(ccc(O)c3OC)C2)c(OC)c1O [(−)-duartin]
- Viability (C2C12 myotubes; [10]): 1.175
- ROS (reactive oxygen species; [10]): 0.900
- GE-HTS (OXPHOS gene expression; [10]): −0.048
- ΔΨm [1, 10]: 0.392
- cyt c (cytochrome c; [10]): −0.472
- MTT [2, 10]: −0.571
- nucOX (nuOXPHOS transcripts; [10]): −0.331
- mitoOX (mtOXPHOS transcripts; [10]): 0.466

Compound: CC12CCCC(O)(C1)C1CC(C)(C)C1CC2 (stereo not drawn) [beta-caryophyllene alcohol]
- Viability (C2C12 myotubes; [3]): −0.960
- ROS (reactive oxygen species; [3]): 1.180
- GE-HTS (OXPHOS gene expression; [3]): 0.155
- ΔΨm [1, 3]: −0.433
- cyt c (cytochrome c; [3]): −1.030
- MTT [2, 3]: −1.859
- nucOX (nuOXPHOS transcripts; [3]): 0.105
- mitoOX (mtOXPHOS transcripts; [3]): 0.264

— patent US20090143279A1 (priority 2007, published 2009)
